Legend:
[1] = Promotion of nasal absorption of peptide proteinaceous drug; settings: in vivo
[2] = test system: Human Nasal Mucosal Homogenate; test: Inhibitory effect on degradation of peptide proteinaceous drug in human nasal mucosal homogenate; assay type: biochemical; design: concentration or dose not given beside the values; settings: 37° C., HPLC
Method: A homogenate solution was prepared from human nasal mucosa to give 1 mg/ml of protein. […] The amounts of the peptide proteinaceous drug not yet cleaved after a predetermined time were measured by HPLC to find the amounts of decomposition. The inhibition rates were calculated by the following formula.
Inhibition rate (%)=(A-B)/A×100
A: Amount of peptide proteinaceous drug cleaved when enzyme inhibitor or absorption accelerant of present invention is not added to homogenate
B: Amount of peptide proteinaceous drug cleaved when enzyme inhibitor or absorption accelerant of present invention is added to homogenate

SMILES: NCCCCCC(=O)O [ε-ACA, ε-Amino caproic acid]
- effect of promoting nasal absorption [1]: no effect of promoting nasal absorption was observed
- Inhibitor (%) ACTH ([2]; degradation of adrenocorticotropic hormone (ACTH)): 0%
- Inhibitor (%) CGRP ([2]; degradation of calcitonin gene related peptide (CGRP)): 0%
- Inhibitor (%) GLU ([2]; degradation of glucagon (GLU)): 0%
- Inhibitor (%) GHRH ([2]; degradation of growth hormone releasing hormone (GHRH)): 0%
- Inhibitor (%) INS ([2]; degradation of insulin (INS)): 0%
- Inhibitor (%) LHRH ([2]; degradation of luteinizing hormone releasing hormone (LHRH)): 0%
- Inhibitor (%) PTH ([2]; degradation of parathyroid hormone (PTH)): 0%
- Inhibitor (%) PDGF ([2]; degradation of platelet-derived growth factor (PDGF)): 0%
- Inhibitor (%) SCT ([2]; degradation of salmon calcitonin (SCT)): 0%
- Inhibitor (%) GIF ([2]; degradation of somatostatin (GIF)): 0%
- Inhibitor (%) S.p ([2]; degradation of substance P (S.p)): 0%

From patent US5578324A, “Peptide proteinaceous drug nasal powder composition” (Teijin Limited, priority 1993, dated 1996)
